According to PMC6688997 (Nature Communications, 2019):
Several values for one entry are separate records, joined by “and”; a condition that tells them apart may be missing. Identical values can stand only once. Like-named read-outs stand apart in the source and are kept apart here.

Legend:
[1] = target: T1, NDR2 (Homo sapiens, UniProt Q9Y2H1); experiment: Kinase assay, ATP Km; type: biochemical
T1 construct: purchased Carna Biosciences

[2] = target: T2, HIPK1 (Homo sapiens, UniProt Q86Z02); experiment: Kinase assay, ATP Km; type: biochemical
T2 construct: purchased Carna Biosciences

[3] = target: T3, WNK2 (Homo sapiens, UniProt Q9Y3S1); experiment: Kinase assay, ATP Km; type: biochemical
T3 construct: purchased Carna Biosciences

[4] = test system: EML4-ALK WT induced Ba/F3 cells; experiment: CellTiter-Glo cell viability assay; type: cell-based, murine; conditions: 72 h, read-out: IC50
[5] = target: GSK3α (Homo sapiens, UniProt P49840); experiment: Kinase assay, ATP Km; type: biochemical
Sequence of GSK3α (P49840 whole entry): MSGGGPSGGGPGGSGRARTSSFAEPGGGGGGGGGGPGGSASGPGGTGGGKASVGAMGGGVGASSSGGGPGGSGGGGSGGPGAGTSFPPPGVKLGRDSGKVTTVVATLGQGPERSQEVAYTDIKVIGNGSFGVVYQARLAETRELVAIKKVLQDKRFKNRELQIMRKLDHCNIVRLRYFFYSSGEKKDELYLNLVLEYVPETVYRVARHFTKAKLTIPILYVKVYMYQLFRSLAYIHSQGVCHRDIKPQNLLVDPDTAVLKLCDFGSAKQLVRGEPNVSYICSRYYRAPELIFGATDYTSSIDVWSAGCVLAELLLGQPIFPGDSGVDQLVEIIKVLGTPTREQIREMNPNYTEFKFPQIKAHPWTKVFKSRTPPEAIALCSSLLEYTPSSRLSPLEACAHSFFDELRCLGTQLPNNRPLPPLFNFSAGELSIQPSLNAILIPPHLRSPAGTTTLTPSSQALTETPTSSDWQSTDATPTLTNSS

[6] = target: CaMK4 (Homo sapiens, UniProt Q16566); experiment: Kinase assay, ATP Km; type: biochemical
[7] = target: T4, HIPK2 (Homo sapiens, UniProt Q9H2X6); experiment: Kinase assay, ATP Km; type: biochemical
T4 construct: purchased Carna Biosciences

[8] = target: T5, JAK2 (Homo sapiens, UniProt O60674); experiment: Kinase assay, 1 mM ATP; type: biochemical
T5 construct: purchased Carna Biosciences
T5 sequence (O60674 whole entry): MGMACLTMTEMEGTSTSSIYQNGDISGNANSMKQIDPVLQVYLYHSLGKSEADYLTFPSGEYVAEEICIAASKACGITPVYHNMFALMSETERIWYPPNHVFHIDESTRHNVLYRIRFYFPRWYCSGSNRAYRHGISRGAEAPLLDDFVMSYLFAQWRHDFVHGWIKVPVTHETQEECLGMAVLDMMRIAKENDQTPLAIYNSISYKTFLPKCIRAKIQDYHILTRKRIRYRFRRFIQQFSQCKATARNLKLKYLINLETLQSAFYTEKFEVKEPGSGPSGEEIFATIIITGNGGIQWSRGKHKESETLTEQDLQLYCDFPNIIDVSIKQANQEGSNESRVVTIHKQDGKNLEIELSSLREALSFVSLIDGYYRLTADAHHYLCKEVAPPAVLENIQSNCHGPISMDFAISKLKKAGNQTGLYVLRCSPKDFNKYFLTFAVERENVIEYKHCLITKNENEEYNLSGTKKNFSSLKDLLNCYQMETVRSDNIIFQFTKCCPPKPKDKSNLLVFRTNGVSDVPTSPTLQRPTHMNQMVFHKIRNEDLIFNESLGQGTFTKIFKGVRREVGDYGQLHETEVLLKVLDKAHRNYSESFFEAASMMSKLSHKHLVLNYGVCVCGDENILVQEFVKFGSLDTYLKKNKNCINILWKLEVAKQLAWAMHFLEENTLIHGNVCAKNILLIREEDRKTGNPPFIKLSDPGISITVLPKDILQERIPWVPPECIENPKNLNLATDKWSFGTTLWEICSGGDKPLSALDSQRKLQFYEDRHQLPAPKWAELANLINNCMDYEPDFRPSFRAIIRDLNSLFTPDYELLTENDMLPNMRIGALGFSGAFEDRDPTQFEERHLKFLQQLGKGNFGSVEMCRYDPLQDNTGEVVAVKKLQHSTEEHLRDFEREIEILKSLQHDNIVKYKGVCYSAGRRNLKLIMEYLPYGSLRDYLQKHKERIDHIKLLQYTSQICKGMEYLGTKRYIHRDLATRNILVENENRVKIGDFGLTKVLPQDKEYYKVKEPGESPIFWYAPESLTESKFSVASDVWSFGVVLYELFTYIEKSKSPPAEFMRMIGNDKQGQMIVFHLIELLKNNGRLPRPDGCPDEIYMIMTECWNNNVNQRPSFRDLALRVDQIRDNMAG

[9] = target: T6, PRKX (Homo sapiens, UniProt P51817); experiment: Kinase assay, ATP Km; type: biochemical
T6 construct: purchased Carna Biosciences

[10] = target: T7, PKD3 (Homo sapiens, UniProt O94806); experiment: Kinase assay, ATP Km; type: biochemical
T7 construct: purchased Carna Biosciences

[11] = target: T8, PASK (Homo sapiens, UniProt Q96RG2); experiment: Kinase assay, ATP Km; type: biochemical
T8 construct: purchased Carna Biosciences

[12] = Body weight of Ba/F3-CD74-ROS1-WT xenograft mice; type: in vivo, mouse; conditions: for Body Weight Change(%) (average / SD): N 6
[13] = target: CK2α1/β (Homo sapiens, UniProt P68400); experiment: Kinase assay, ATP Km; type: biochemical
[14] = target: T9, MRCKα (Homo sapiens, UniProt Q5VT25); experiment: Kinase assay, ATP Km; type: biochemical
T9 construct: purchased Carna Biosciences

[15] = target: PHKG2 (Homo sapiens, UniProt P15735); experiment: Kinase assay, ATP Km; type: biochemical
[16] = target: T10, DDR1 (Homo sapiens, UniProt Q08345); experiment: Kinase assay, 1 mM ATP; type: biochemical
T10 construct: purchased Carna Biosciences, Inc. (Kobe, Japan); assay run by the vendor
T10 sequence (Q08345 19-913): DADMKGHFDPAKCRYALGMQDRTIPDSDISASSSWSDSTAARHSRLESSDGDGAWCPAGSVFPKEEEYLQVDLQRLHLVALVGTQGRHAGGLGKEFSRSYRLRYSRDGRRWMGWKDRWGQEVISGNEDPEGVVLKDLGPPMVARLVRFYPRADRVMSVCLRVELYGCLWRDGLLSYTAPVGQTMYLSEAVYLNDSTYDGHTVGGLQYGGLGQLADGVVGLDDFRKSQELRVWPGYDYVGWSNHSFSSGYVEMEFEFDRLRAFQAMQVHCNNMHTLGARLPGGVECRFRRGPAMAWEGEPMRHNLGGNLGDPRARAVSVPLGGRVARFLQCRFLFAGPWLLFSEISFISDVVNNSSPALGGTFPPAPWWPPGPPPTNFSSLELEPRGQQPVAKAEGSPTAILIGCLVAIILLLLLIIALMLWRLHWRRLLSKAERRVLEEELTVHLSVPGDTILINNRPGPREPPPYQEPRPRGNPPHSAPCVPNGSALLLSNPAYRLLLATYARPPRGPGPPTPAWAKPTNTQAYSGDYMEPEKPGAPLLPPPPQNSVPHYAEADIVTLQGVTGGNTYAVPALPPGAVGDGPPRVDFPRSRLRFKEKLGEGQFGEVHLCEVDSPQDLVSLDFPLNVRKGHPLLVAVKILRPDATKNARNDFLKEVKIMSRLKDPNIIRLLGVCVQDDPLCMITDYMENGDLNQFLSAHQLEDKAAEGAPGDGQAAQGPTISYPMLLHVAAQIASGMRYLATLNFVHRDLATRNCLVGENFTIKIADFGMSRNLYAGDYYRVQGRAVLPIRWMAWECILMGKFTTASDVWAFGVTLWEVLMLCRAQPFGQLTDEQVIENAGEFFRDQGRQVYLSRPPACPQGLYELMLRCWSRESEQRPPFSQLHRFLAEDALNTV

[17] = target: T11, NTRK2 (Homo sapiens, UniProt Q16620); experiment: Kinase assay, 1 mM ATP; type: biochemical
T11 construct: purchased Carna Biosciences, Inc. (Kobe, Japan)
T11 sequence (Q16620 32-822): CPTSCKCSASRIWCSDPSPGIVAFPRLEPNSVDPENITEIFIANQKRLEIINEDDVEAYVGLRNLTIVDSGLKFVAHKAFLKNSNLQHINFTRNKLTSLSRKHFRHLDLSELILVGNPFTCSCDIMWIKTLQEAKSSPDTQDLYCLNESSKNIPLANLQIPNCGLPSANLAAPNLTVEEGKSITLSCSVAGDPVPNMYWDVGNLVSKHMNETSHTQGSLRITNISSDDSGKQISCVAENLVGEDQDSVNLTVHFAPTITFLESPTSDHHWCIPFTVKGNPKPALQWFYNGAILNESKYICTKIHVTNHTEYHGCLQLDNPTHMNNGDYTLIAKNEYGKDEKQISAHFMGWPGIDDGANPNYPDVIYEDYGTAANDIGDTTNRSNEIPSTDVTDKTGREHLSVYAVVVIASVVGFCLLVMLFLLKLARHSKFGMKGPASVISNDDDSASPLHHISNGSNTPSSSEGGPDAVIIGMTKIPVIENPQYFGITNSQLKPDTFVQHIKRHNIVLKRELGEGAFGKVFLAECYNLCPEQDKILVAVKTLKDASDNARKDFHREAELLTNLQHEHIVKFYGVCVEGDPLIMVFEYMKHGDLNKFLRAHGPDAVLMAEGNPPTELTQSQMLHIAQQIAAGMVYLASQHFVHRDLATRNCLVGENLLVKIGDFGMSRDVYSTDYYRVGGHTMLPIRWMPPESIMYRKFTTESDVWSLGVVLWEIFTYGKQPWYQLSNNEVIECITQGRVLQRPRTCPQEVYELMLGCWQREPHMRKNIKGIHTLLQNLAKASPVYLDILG

[18] = target: EPHA3 (Homo sapiens, UniProt P29320); experiment: Kinase assay, ATP Km; type: biochemical
[19] = target: T12, DDR2 (Homo sapiens, UniProt Q16832); experiment: Kinase assay, ATP Km; type: biochemical
T12 sequence (Q16832 22-855): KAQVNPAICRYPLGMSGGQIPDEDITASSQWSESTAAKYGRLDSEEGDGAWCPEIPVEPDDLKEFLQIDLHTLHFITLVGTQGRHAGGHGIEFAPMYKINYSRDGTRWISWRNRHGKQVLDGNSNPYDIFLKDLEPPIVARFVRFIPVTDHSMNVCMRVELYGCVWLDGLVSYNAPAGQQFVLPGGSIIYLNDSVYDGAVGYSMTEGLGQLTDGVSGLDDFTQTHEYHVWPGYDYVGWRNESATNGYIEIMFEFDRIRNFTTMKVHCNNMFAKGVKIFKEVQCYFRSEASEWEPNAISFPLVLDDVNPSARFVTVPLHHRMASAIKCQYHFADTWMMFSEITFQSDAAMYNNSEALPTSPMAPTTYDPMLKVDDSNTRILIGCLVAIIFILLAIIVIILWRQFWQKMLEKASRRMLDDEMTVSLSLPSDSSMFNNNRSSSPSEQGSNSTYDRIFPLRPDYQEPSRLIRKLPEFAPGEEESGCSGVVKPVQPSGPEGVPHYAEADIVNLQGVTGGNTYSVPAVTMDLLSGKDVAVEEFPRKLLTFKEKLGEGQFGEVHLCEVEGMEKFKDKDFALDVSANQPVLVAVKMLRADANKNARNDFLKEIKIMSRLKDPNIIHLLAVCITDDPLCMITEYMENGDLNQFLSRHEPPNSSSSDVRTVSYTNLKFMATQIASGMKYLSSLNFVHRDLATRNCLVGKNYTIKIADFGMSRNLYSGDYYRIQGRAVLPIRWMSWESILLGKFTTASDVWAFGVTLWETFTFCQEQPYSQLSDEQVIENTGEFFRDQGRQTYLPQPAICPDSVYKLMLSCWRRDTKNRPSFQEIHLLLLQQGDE

[20] = target: MARK4 (Homo sapiens, UniProt Q96L34); experiment: Kinase assay, ATP Km; type: biochemical
Sequence of MARK4 (Q96L34 whole entry): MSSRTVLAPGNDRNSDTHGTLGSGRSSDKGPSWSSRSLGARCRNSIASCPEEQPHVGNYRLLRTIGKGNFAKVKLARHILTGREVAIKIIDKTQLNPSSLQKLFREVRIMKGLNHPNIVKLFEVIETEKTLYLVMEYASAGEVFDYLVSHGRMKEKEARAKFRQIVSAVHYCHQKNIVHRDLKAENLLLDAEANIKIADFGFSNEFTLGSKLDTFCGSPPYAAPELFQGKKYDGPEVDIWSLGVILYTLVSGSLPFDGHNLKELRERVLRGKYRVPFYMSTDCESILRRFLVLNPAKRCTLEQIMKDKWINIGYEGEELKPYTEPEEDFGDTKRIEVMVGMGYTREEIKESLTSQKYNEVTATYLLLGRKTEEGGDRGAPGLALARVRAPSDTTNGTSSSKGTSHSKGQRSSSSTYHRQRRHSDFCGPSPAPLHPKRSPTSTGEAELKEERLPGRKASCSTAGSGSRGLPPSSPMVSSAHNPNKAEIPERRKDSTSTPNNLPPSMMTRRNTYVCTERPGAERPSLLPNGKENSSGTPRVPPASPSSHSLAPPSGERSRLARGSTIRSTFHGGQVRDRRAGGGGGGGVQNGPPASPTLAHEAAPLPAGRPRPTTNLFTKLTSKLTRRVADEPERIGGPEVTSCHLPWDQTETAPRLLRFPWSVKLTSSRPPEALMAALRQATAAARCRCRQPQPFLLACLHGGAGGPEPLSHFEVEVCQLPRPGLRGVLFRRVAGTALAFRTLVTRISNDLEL

[21] = target: T13, MNK1 (Homo sapiens, UniProt Q9BUB5); experiment: Kinase assay, ATP Km; type: biochemical
T13 construct: purchased Carna Biosciences

[22] = target: T14, SRPK2 (Homo sapiens, UniProt P78362); experiment: Kinase assay, ATP Km; type: biochemical
T14 construct: purchased Carna Biosciences
T14 sequence (P78362 whole entry): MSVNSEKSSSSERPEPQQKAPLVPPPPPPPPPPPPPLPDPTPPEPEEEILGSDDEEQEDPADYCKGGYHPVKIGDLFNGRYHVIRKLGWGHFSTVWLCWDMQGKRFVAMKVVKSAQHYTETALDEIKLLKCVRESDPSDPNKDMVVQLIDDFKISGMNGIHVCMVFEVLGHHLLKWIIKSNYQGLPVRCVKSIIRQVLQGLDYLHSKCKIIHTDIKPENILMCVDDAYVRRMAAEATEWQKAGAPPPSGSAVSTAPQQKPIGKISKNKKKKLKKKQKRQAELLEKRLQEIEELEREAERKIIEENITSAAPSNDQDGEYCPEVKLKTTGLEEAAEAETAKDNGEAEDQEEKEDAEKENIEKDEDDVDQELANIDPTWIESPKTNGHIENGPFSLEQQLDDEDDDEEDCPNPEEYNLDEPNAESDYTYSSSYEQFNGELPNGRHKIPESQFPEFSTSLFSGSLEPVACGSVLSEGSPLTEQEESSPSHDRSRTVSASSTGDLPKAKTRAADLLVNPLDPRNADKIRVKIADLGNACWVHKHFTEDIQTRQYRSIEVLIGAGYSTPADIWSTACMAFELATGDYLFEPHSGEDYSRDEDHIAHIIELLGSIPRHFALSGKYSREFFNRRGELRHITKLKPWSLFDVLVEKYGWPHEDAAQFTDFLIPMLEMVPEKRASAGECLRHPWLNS

## C[C@@H](N)COc1ccc(-c2cnc3ccc(N[C@H](C)c4cccc(F)c4)nn23)cc1.O=C(O)CCCCC(=O)O [DS-6051b]
[1]
  inhibition at 0.04 µM: 43.8%
[2]
  inhibition at 0.04 µM: 0.135%
[3]
  inhibition at 0.04 µM: -1.8%
[4]
  IC50: ~50 nM
[4]; Mus musculus, BaF3, 72 h
  IC50: 46.6 nM
[5]
  inhibition at 0.04 µM: -2.5%
[6]
  inhibition at 0.04 µM: 3.7%
[7]
  inhibition at 0.04 µM: 3.5%
[8]
  inhibition at 0.2 µM: 33%
[9]
  inhibition at 0.04 µM: 1.7%
[10]
  inhibition at 0.04 µM: 3.7%
[11]
  inhibition at 0.04 µM: 6.9%
[12]; DS-6051b 3 mg/kg po, day 0, average
  Body Weight Change(%) (average / SD): 0.0%
[12]; DS-6051b 3 mg/kg po, day 0, individual animals
  Body Weight Change(%) (individual): 0%
[12]; DS-6051b 3 mg/kg po, day 1, average
  Body Weight Change(%) (average / SD): -1.4%
[12]; DS-6051b 3 mg/kg po, day 1, individual animals
  Body Weight Change(%) (individual): -0.5% and 0.5% and -2.3% and -3.9% and -1.5%
[12]; DS-6051b 3 mg/kg po, day 2, average
  Body Weight Change(%) (average / SD): 0.1%
[12]; DS-6051b 3 mg/kg po, day 2, individual animals
  Body Weight Change(%) (individual): 0.5% and 3.8% and 1.4% and -3.2% and -0.4% and -1.5%
[12]; DS-6051b 3 mg/kg po, day 3, average
  Body Weight Change(%) (average / SD): 0.9%
[12]; DS-6051b 3 mg/kg po, day 3, individual animals
  Body Weight Change(%) (individual): 1.9% and 4.3% and 1.4% and -2.7% and 0.4% and 0%
[12]; DS-6051b 3 mg/kg po, day 4, average
  Body Weight Change(%) (average / SD): 1.5%
[12]; DS-6051b 3 mg/kg po, day 4, individual animals
  Body Weight Change(%) (individual): 1.4% and 4.8% and 2.8% and -2.3% and 0.4% and 2%
[12]; DS-6051b 10 mg/kg po, day 0, average
  Body Weight Change(%) (average / SD): 0.0%
[12]; DS-6051b 10 mg/kg po, day 0, individual animals
  Body Weight Change(%) (individual): 0%
[12]; DS-6051b 10 mg/kg po, day 1, average
  Body Weight Change(%) (average / SD): -2.6%
[12]; DS-6051b 10 mg/kg po, day 1, individual animals
  Body Weight Change(%) (individual): -2.0% and -2.4% and -3.0% and -0.5% and -4.6% and -2.9%
[12]; DS-6051b 10 mg/kg po, day 2, average
  Body Weight Change(%) (average / SD): -0.7%
[12]; DS-6051b 10 mg/kg po, day 2, individual animals
  Body Weight Change(%) (individual): 0.5% and -1.4% and -0.5% and 2.5% and -1.8% and -3.4%
[12]; DS-6051b 10 mg/kg po, day 3, average
  Body Weight Change(%) (average / SD): 0.3%
[12]; DS-6051b 10 mg/kg po, day 3, individual animals
  Body Weight Change(%) (individual): 1.5% and -0.5% and 2.5% and -0.9%
[12]; DS-6051b 10 mg/kg po, day 4, average
  Body Weight Change(%) (average / SD): -1.0%
[12]; DS-6051b 10 mg/kg po, day 4, individual animals
  Body Weight Change(%) (individual): 1.0% and -2.4% and -2.5% and 1.5% and -1.8% and -1.9%
[12]; DS-6051b 30 mg/kg po, day 0, average
  Body Weight Change(%) (average / SD): 0.0%
[12]; DS-6051b 30 mg/kg po, day 0, individual animals
  Body Weight Change(%) (individual): 0%
[12]; DS-6051b 30 mg/kg po, day 1, average
  Body Weight Change(%) (average / SD): -3.0%
[12]; DS-6051b 30 mg/kg po, day 1, individual animals
  Body Weight Change(%) (individual): -1.9% and -2.5% and -2.8% and -3.4% and -2.6% and -5%
[12]; DS-6051b 30 mg/kg po, day 2, average
  Body Weight Change(%) (average / SD): -2.1%
[12]; DS-6051b 30 mg/kg po, day 2, individual animals
  Body Weight Change(%) (individual): -2.4% and -1.0% and -2.8% and -1.9% and -2.1% and -2.5%
[12]; DS-6051b 30 mg/kg po, day 3, average
  Body Weight Change(%) (average / SD): -2.0%
[12]; DS-6051b 30 mg/kg po, day 3, individual animals
  Body Weight Change(%) (individual): -1.0% and -2.3% and -2.9% and -1.5% and -3%
[12]; DS-6051b 30 mg/kg po, day 4, average
  Body Weight Change(%) (average / SD): -3.2%
[12]; DS-6051b 30 mg/kg po, day 4, individual animals
  Body Weight Change(%) (individual): -1.0% and -2.5% and -3.8% and -3.9% and -2.1% and -6%
[12]; DS-6051b 100 mg/kg po, day 0, average
  Body Weight Change(%) (average / SD): 0.0%
[12]; DS-6051b 100 mg/kg po, day 0, individual animals
  Body Weight Change(%) (individual): 0%
[12]; DS-6051b 100 mg/kg po, day 1, average
  Body Weight Change(%) (average / SD): -3.0%
[12]; DS-6051b 100 mg/kg po, day 1, individual animals
  Body Weight Change(%) (individual): -2.9% and -3.5% and -2.3% and -5.8% and -1.8% and -1.5%
[12]; DS-6051b 100 mg/kg po, day 2, average
  Body Weight Change(%) (average / SD): -2.4%
[12]; DS-6051b 100 mg/kg po, day 2, individual animals
  Body Weight Change(%) (individual): -2.5% and -1.5% and -3.6% and -3.1% and -2.3%
[12]; DS-6051b 100 mg/kg po, day 3, average
  Body Weight Change(%) (average / SD): -3.0%
[12]; DS-6051b 100 mg/kg po, day 3, individual animals
  Body Weight Change(%) (individual): -2.5% and -2.7% and -6.7% and -2.8% and -0.5%
[12]; DS-6051b 100 mg/kg po, day 4, average
  Body Weight Change(%) (average / SD): -2.2%
[12]; DS-6051b 100 mg/kg po, day 4, individual animals
  Body Weight Change(%) (individual): -3.4% and -2% and -2.7% and -4% and -2.3% and 1.5%
[12]; ≥30 mg/kg
  Body weight loss: without severe body weight loss
[13]
  inhibition at 0.04 µM: 4.1%
[14]
  inhibition at 0.04 µM: -0.239%
[15]
  inhibition at 0.04 µM: 87.4%
[16]; 0.2μM, 1 mM ATP
  % Inhibition: almost completely inhibited
  inhibition at 0.2 µM: 88%
[16]; ATP: 1 mM
  IC50: 24.7 nM
[17]; 0.2μM, 1 mM ATP
  inhibition at 0.2 µM: 95.2%
[17]; ATP: 1 mM
  IC50: 9.52 nM
[18]
  inhibition at 0.04 µM: 18.2%
[19]
  inhibition at 0.04 µM: 93.7%
[20]
  inhibition at 0.04 µM: 22.6%
[21]
  inhibition at 0.04 µM: 3.7%
[22]
  inhibition at 0.04 µM: 1.8%
